Measurements: patent publication US7875606B2, “Izoxazoline derivative and herbicide” (Ihara Chemical Industry Co., Ltd., priority 2001, dated 2011)

Assays:
Assay type in all cases: in vivo
[1] = system: Echinochloa oryzicola Vasing.; experiment: Herbicidal effect by paddy field pre-emergence treatment; conditions: wettable powder, active ingredient 1000 g/ha, examined at the 21st day from the treatment
Method: (§1) Test For Herbicidal Effect By Paddy Field Pre-Emergence Treatment
(§2) A paddy field soil was filled in a plastic pot of 100 cm^2 and subjected to puddling. Then, seeds of Echinochloa oryzicola Vasing. and Monochoria vaginalis (Murm. f.) Presl var. plantaginea (Roxb.) Solms-Laub. were sowed and water was filled in a depth of 3 cm. Next day, wettable powders produced in accordance with the Formulation 1 were diluted with water and dropped on the water surface. The application amount of each wettable powder was 1,000 g per 1 hectare in terms of the active ingredient. Then, breeding was made in a greenhouse, and the herbicidal effect of each wettable powder was examined at the 21st day from the treatment in accordance with the standard shown in Table 61.

[2] = system: Monochoria vaginalis (Murm. f.) Presl var. plantaginea (Roxb.) Solms-Laub.; experiment: as above; conditions: wettable powder, active ingredient 1000 g/ha, examined at the 21st day from the treatment
Method: as §1, §2

[3] = system: Echinochloa crus-galli (L.) Beauv. var. crus-galli; experiment: Herbicidal effect by upland field pre-emergence treatment; conditions: sprayed on the soil surface, active ingredient 1000 g/ha, examined at the 21st day from the treatment
Method: (§3) Test For Herbicidal Effect By Upland Field Pre-Emergence Treatment An upland field soil was filled in a plastic pot of 80 cm^2. Seeds of Echinochloa crus-galli (L.) Beauv. var. crus-galli and Setaria viridis (L.) Beauv. were sowed, followed by covering with the same soil. Wettable powders produced in accordance with the Formulation 1 were diluted with water and sprayed uniformly on the soil surface using a small sprayer, in an amount of 1,000 liters per 1 hectare so that the amount of each active ingredient became 1,000 g per 1 hectare. Then, breeding was made in a greenhouse, and the herbicidal effect of each wettable powder was examined at the 21st day from the treatment in accordance with the standard shown in Table 61.

[4] = system: Setaria viridis (L.) Beauv.; experiment: as above; conditions: sprayed on the soil surface, active ingredient 1000 g/ha, examined at the 21st day from the treatment
Method: as §3

Cn1nc(C(F)(F)F)c(CS(=O)(=O)C2=NOC(C)(CCl)C2)c1Cl (stereo not shown) [Compound 2, 3-(5-chloro-1-methyl-3-trifluoromethyl-1H-pyrazol-4-ylmethylsulfonyl)-5-chloromethyl-5-methyl-2-isoxazoline]
5: Herbicidal effect index, Echinochloa oryzicola Vasing [1] | Herbicidal effect index, Monochoria vaginalis (Burm. f) Presl Var. plantaginea (Roxb.) Solms-Laub. [2] | Herbicidal effect index, Echinochloa crus-galli (L.) Beauv. Var. crus-galli [3] | Herbicidal effect index, Setaria viridis (L.) Beauv. [4]
